Assay results as given in patent US20090215782A1, “Use of PDE-5 Inhibitors for Endothelial Repair of Tissues Impaired by Trauma or Disease” (priority 2005, published 2009).

How the values were obtained:
[1] = tested on: haematological and bone marrow tissues; conditions: chronic administration; cited from earlier work
[2] = tested on: circulating endothelial progenitor cells (EPCs); assay: Concentration of circulating EPCs (CD34/AC133 double positive) in peripheral blood by flow cytometry after oral Vardenafil 20 mg, placebo crossover; format: in vivo, human; conditions: healthy men, mean±SD
Protocol: 10 healthy men without cardiovascular risk factors were selected for the study. The ages of the 10 men ranged from 21 to 25 years. Blood samples taken for the purposes of the study were evaluated by flow cytometry, as previously described (Scheubel R. J., Zorn H., Silber R. E., Kuss O., Morawietz H., Holtz J., Simm A. Age-dependent depression in circulating endothelial cell progenitor cells in patients undergoing coronary artery bypass grafting. J Am Coll Cardiol. 42, 2073-2080,2003).
Control samples from each subject were examined to validate the study. The samples were obtained in triplicate, on different days and at different hours of the day and examined. No significant variability was found among the subjects.
Subjects were randomly allocated to two groups of five subjects. The first group received Vardenafil 20 mg on the first visit and a placebo one week later. The second group received the placebo on the first visit and Vardenafil 20 mg one week later. […]
Analysis was performed on a sample of 150 μl of peripheral blood extracted from each subject. […] After incubation, the cells were lysed in NH4Cl lysis buffer, washed twice with PBS 1% FCS and then analysed by flow cytometry.
With reference to FIG. 1, forward and side scatter gates were set to include all viable mononuclear cells; into this gate 500,000 events were acquired. […] Cells were scored using a FACSCalibur analyzer (Becton Dickinson Immunocytometry Systems, San Jose, Calif., USA) and data processing using the CellQuest software programmes (Becton Dickinson Immunocytometry Systems).
The percentage of EPCs, in each subject, was calculated by dividing the number of double positive events by the number of total events. The total number of EPCs per volume, of each subject, per volume was calculated by multiplying the percentage of EPCs with the leukocyte count. The data is expressed as mean±SD. Comparisons of the total number of EPCs at baseline, and at two and four hours after the administration of either Vardenafil 20 mg or the placebo were analyzed by the Student's t-test for matched data. […]

Row | Compound | bone marrow density (indicated by a decrease in adipose tissue percentage) [1] | lymphomonocytic component count [1] | mean increase in EPCs after Vardenafil administration ([2]; four hours after Vardenafil 20 mg vs baseline) [EPCs/Ml] | percentage increase of circulating EPCs with respect to baseline ([2]; four hours after Vardenafil 20 mg) [%] | concentration of EPCs ([2]; four hours after administration of Vardenafil 20 mg, baseline 1849.7±384.3, p<0.001) [EPC/mL]
1 | CCCOc1ccc(S(=O)(=O)NCCC2CCCN2C)cc1-c1nc2c(CCC)nn(C)c2c(=O)[nH]1 (centres unmarked) [DA-8159] | increase | increase | – | – | –
2 | CCCc1nc(C)c2c(=O)[nH]c(-c3cc(S(=O)(=O)N4CCN(CC)CC4)ccc3OCC)nn12 [Vardenafil] | – | – | 795.7±176.7 | 44.1±16.5 | 2645.4±509.5
